In patent US8785460B2, “Tricyclic compounds and use thereof” (Takeda Pharmaceutical Company Limited, priority 2008, dated 2014) one finds IC50 and melting point data, which are given here for 29 compounds.

The structures appear in SMILES notation.

One series concerns the target T1, human CRF1 receptor (Homo sapiens, UniProt P34998).
T1 construct: expressed in transfected cells; host or cells: CHO cells (membrane fraction)
T1 sequence (P34998 24-415): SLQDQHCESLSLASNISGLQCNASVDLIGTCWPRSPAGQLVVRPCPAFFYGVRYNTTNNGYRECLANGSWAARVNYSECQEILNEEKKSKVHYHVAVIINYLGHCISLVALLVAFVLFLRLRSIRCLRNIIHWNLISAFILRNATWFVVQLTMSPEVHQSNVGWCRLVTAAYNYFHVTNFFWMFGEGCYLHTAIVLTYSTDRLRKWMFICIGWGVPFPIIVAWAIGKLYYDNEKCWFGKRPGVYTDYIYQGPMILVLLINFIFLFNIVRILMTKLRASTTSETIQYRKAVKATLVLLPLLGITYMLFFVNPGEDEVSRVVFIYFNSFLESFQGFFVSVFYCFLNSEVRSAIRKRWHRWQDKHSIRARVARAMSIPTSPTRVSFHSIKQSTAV
Description: Measurement of CRF Binding Inhibitory Rate (receptor binding experiment with 125I-CRF). The following applies: human CRF1 receptor expressing CHO cellular membrane fraction, 50 pM 125I-CRF, room temperature 1.5 hr, 0.05 nM to 10 μM of compound; read-out: IC50 values (CRF binding inhibition).
In the case of `CCN(CC)c1cccc2nc3n(c12)CC(OC)CCN3c1ccc(Cl)cc1Cl` (stereo not shown) [Example 358, 1-(2,4-Dichlorophenyl)-N,N-diethyl-4-methoxy-2,3,4,5-tetrahydro-1H-[1,3]diazepino[1,2-a]benzimidazol-7-amine], the IC50 is less than 1000 nM.

On to `COc1ccc(N2CCCn3c2nc2c(Cl)ccc(C(O)(C4CC4)C4CC4)c23)c(C)c1` [Example 354, [9-Chloro-1-(4-methoxy-2-methylphenyl)-1,2,3,4-tetrahydropyrimido[1,2-a]benzimidazol-6-yl](dicyclopropyl)methanol], for which the IC50 was less than 1000 nM.

System in the next series: not given
Assay: not given
Settings: not given
For `CCN(CC)c1cccc2nc3n(c12)CC(OC)CCN3c1ccc(Cl)cc1Cl` (stereo not shown) [Example 358, 1-(2,4-Dichlorophenyl)-N,N-diethyl-4-methoxy-2,3,4,5-tetrahydro-1H-[1,3]diazepino[1,2-a]benzimidazol-7-amine], the melting point was 120 to 122 °C.

Compound `COc1ccc(N2CCCn3c2nc2c(Cl)ccc(C(O)(C4CC4)C4CC4)c23)c(C)c1` [Example 354, [9-Chloro-1-(4-methoxy-2-methylphenyl)-1,2,3,4-tetrahydropyrimido[1,2-a]benzimidazol-6-yl](dicyclopropyl)methanol] came in with a melting point of 181 to 182 °C.

`CCC(O)c1ccc(Cl)c2nc3n(c12)CCCN3c1ccc(Cl)cc1Cl` (single isomer, unassigned; (+)) [Example 439, (+)-1-[9-Chloro-1-(2,4-dichlorophenyl)-1,2,3,4-tetrahydropyrimido[1,2-a]benzimidazol-6-yl]propan-1-ol] showed a melting point of 233 to 235 °C.

Consider `O=C1CCCN1c1ccc(Cl)c2nc3n(c12)CCCN3c1ccc(Cl)cc1Cl` [Example 195, 1-[9-Chloro-1-(2,4-dichlorophenyl)-1,2,3,4-tetrahydropyrimido[1,2-a]benzimidazol-6-yl]pyrrolidin-2-one], for which the melting point lay in the range of 215 to 216 °C.

With `CCC(O)c1ccc(Cl)c2nc3n(c12)CCCN3c1ccc(Cl)cc1Cl` (stereo not shown) [Example 112, 1-[9-Chloro-1-(2,4-dichlorophenyl)-1,2,3,4-tetrahydropyrimido[1,2-a]benzimidazol-6-yl]propan-1-ol], the melting point fell in the range of 244 to 245 °C.

For `CCC(CC)c1ccc(Cl)c2nc3n(c12)CCN3c1ccc(Cl)cc1C(N)=O` [Example 223, 5-Chloro-2-[8-chloro-5-(1-ethylpropyl)-2,3-dihydro-1H-imidazo[1,2-a]benzimidazol-1-yl]benzamide], the melting point is greater than 300 °C.

Take `Cc1nc(O)nc(C)c1N1CCCn2c1nc1c(Cl)ccc(C(OC(F)F)C(F)(F)F)c12` (stereo not shown) [Example 215, 5-{9-Chloro-6-[1-(difluoromethoxy)-2,2,2-trifluoroethyl]-3,4-dihydropyrimido[1,2-a]benzimidazol-1(2H)-yl}-4,6-dimethylpyrimidin-2-ol]: the melting point fell in the range of 208 to 210 °C.

Compound `CCC(O)c1cccc2nc3n(c12)CCCN3c1ccc(Cl)cc1Cl` (stereo not shown) [Example 92, 1-[1-(2,4-Dichlorophenyl)-1,2,3,4-tetrahydropyrimido[1,2-a]benzimidazol-6-yl]propan-1-ol] had a melting point of 186 to 188 °C.

Compound `CCC(O)c1ccc(Cl)c2nc3n(c12)CCCN3c1c(C)cc(Cl)cc1Cl` (stereo not shown) [Example 380, 1-[9-Chloro-1-(2,4-dichloro-6-methylphenyl)-1,2,3,4-tetrahydropyrimido[1,2-a]benzimidazol-6-yl]propan-1-ol] gave a melting point of 210 to 211 °C.

In turn, `N#Cc1cccc2nc3n(c12)CCCN3c1ccc(Cl)cc1Cl` [Example 84, 1-(2,4-Dichlorophenyl)-1,2,3,4-tetrahydropyrimido[1,2-a]benzimidazole-6-carbonitrile] had a melting point of 170 to 171 °C.

Regarding `CCS(=O)(=O)Cc1ccc(Cl)c2nc3n(c12)CCCN3c1ccc(Cl)cc1Cl` [Example 461, 9-Chloro-1-(2,4-dichlorophenyl)-6-[(ethylsulfonyl)methyl]-1,2,3,4-tetrahydropyrimido[1,2-a]benzimidazole], the melting point lay within 300 to 302 °C.

For the compound `O=S(=O)(CC(F)(F)F)NC(c1ccc(Cl)c2nc3n(c12)CCCN3c1c(Cl)cc(Cl)cc1Cl)C(F)(F)F` (stereo not shown) [Example 417, N-{1-[9-Chloro-1-(2,4,6-trichlorophenyl)-1,2,3,4-tetrahydropyrimido[1,2-a]benzimidazol-6-yl]-2,2,2-trifluoroethyl}-2,2,2-trifluoroethanesulfonamide], the melting point fell in the range of 237 to 239 °C.

In turn, `CCC(=O)c1cccc2nc3n(c12)CCCN3c1ccc(Cl)cc1Cl` [Example 198, 1-[1-(2,4-Dichlorophenyl)-1,2,3,4-tetrahydropyrimido[1,2-a]benzimidazol-6-yl]propan-1-one] gave a melting point of 195 to 196 °C.

Consider `OC(c1ccc(Cl)c2nc3n(c12)CCCN3c1ccc(Cl)cc1Cl)(C(F)(F)F)C(F)(F)F` [Example 319, 2-[9-Chloro-1-(2,4-dichlorophenyl)-1,2,3,4-tetrahydropyrimido[1,2-a]benzimidazol-6-yl]-1,1,1,3,3,3-hexafluoropropan-2-ol], for which the melting point is 237 to 240 °C.

As to `OC(c1cccc2nc3n(c12)CCCN3c1ccc(Cl)cc1Cl)C1CC1` (stereo not shown) [Example 95, Cyclopropyl[1-(2,4-dichlorophenyl)-1,2,3,4-tetrahydropyrimido[1,2-a]benzimidazol-6-yl]methanol], the melting point was in the range of 208 to 209 °C.

As for `Cc1nc(NC2CC2)ccc1N1CCCn2c1nc1c(Cl)ccc(C(OC(F)F)C(F)(F)F)c12` (stereo not shown) [Example 299, 5-{9-Chloro-6-[1-(difluoromethoxy)-2,2,2-trifluoroethyl]-3,4-dihydropyrimido[1,2-a]benzimidazol-1(2H)-yl}-N-cyclopropyl-6-methylpyridin-2-amine], the melting point lay in the range of 168 to 170 °C.

Consider `CCC(CC)c1ccc(Cl)c2nc3n(c12)CCN3C(=O)c1c(C)cc(C)cc1C` [Example 229, 8-Chloro-5-(1-ethylpropyl)-1-[(2,4,6-trimethylphenyl)carbonyl]-2,3-dihydro-1H-imidazo[1,2-a]benzimidazole], for which the melting point is 234 to 236 °C.

Consider `COc1nc(C)c(N2CCCn3c2nc2cccc(C(O)C(F)(F)F)c23)c(C)n1` (stereo not shown) [Example 517, 2,2,2-Trifluoro-1-[1-(2-methoxy-4,6-dimethylpyrimidin-5-yl)-1,2,3,4-tetrahydropyrimido[1,2-a]benzimidazol-6-yl]ethanol], for which the melting point is 296 to 299 °C.

`O=C(c1cccc2nc3n(c12)CCCN3c1ccc(Cl)cc1Cl)N1CC(O)C1` [Example 90, 1-{[1-(2,4-Dichlorophenyl)-1,2,3,4-tetrahydropyrimido[1,2-a]benzimidazol-6-yl]carbonyl}azetidin-3-ol] gave a melting point of 257 to 258 °C.

Take `Cc1nc(N2CCN(C)CC2)ccc1N1CCCn2c1nc1c(Cl)ccc(C(OC(F)F)C(F)(F)F)c12` (stereo not shown) [Example 297, 9-Chloro-6-[1-(difluoromethoxy)-2,2,2-trifluoroethyl]-1-[2-methyl-6-(4-methylpiperazin-1-yl)pyridin-3-yl]-1,2,3,4-tetrahydropyrimido[1,2-a]benzimidazole]: the melting point fell in the range of 193 to 195 °C.

In the case of `CCN(CC)c1cccc2nc3n(c12)CCOC3c1ccc(Cl)cc1Cl` (stereo not shown) [Example 501, 1-(2,4-Dichlorophenyl)-N,N-diethyl-3,4-dihydro-1H-[1,4]oxazino[4,3-a]benzimidazol-6-amine], the melting point fell in the range of 130 to 131 °C.

As to `CN(C)Cc1cccc2nc3n(c12)CCCN3c1ccc(Cl)cc1Cl` [Example 87, 1-[1-(2,4-Dichlorophenyl)-1,2,3,4-tetrahydropyrimido[1,2-a]benzimidazol-6-yl]-N,N-dimethylmethanamine], the melting point was in the range of 158 to 159 °C.

For `CCN(CC)C(=O)c1cccc2nc3n(c12)CCCN3c1ccc(Cl)cc1Cl` [Example 88, 1-(2,4-Dichlorophenyl)-N,N-diethyl-1,2,3,4-tetrahydropyrimido[1,2-a]benzimidazole-6-carboxamide], the melting point lay in the range of 183 to 184 °C.

In turn, `CCOC(c1ccc(Cl)c2nc3n(c12)CCCN3c1ccc(OC)nc1C)C(F)(F)F` (stereo not shown) [Example 281, 9-Chloro-6-(1-ethoxy-2,2,2-trifluoroethyl)-1-(6-methoxy-2-methylpyridin-3-yl)-1,2,3,4-tetrahydropyrimido[1,2-a]benzimidazole] returned a melting point of 168 to 170 °C.

In turn, `CCN(CC)c1cccc2nc3n(c12)CCCN(C)C3c1ccc(Cl)cc1Cl` (stereo not shown) [Example 510, 1-(2,4-Dichlorophenyl)-N,N-diethyl-2-methyl-2,3,4,5-tetrahydro-1H-[1,4]diazepino[1,2-a]benzimidazol-7-amine] registered a melting point of 132 to 133 °C.

Compound `CCC(NC(=O)C1CC1)c1ccc(Cl)c2nc3n(c12)CCCN3c1ccc(Cl)cc1Cl` (stereo not shown) [Example 441, N-{1-[9-Chloro-1-(2,4-dichlorophenyl)-1,2,3,4-tetrahydropyrimido[1,2-a]benzimidazol-6-yl]propyl}cyclopropanecarboxamide] registered a melting point of 251 to 253 °C.

Take `OC1CN(Cc2cccc3nc4n(c23)CCCN4c2ccc(Cl)cc2Cl)C1` [Example 91, 1-{[1-(2,4-Dichlorophenyl)-1,2,3,4-tetrahydropyrimido[1,2-a]benzimidazol-6-yl]methyl}azetidin-3-ol]: the melting point is 240 to 241 °C.

The compound `CN(C)C(=O)c1cccc2nc3n(c12)CCCN3c1ccc(Cl)cc1Cl` [Example 86, 1-(2,4-Dichlorophenyl)-N,N-dimethyl-1,2,3,4-tetrahydropyrimido[1,2-a]benzimidazole-6-carboxamide] yielded a melting point of 212 to 213 °C.

The compound `Cc1nc(N2CCOCC2)ccc1N1CCCn2c1nc1c(Cl)ccc(C(OC(F)F)C(F)(F)F)c12` (stereo not shown) [Example 296, 9-Chloro-6-[1-(difluoromethoxy)-2,2,2-trifluoroethyl]-1-(2-methyl-6-morpholin-4-ylpyridin-3-yl)-1,2,3,4-tetrahydropyrimido[1,2-a]benzimidazole] showed a melting point of 191 to 193 °C.

As usually defined, the IC50 is the midpoint of a concentration-inhibition curve. The melting point is the temperature of the solid-liquid transition.
